Test results as given in ChEMBL document CHEMBL1151314, “Phenylethanoid glycosides from Digitalis purpurea and Penstemon linarioides with PKCalpha-inhibitory activity” (J Nat Prod, 1998).

What follows are molecules tested against Protein kinase C alpha type (Homo sapiens, UniProt P17252) (assay: Inhibition of human recombinant PKCalpha).

Row | IC50 [µM] | SMILES
1 | 1.9 | C[C@@H]1O[C@@H](OC[C@H]2O[C@@H](OCCc3ccc(O)c(O)c3)[C@H](O)[C@@H](O)[C@@H]2OC(=O)/C=C/c2ccc(O)c(O)c2)[C@H](O)[C@H](O)[C@H]1O [FORSYTHIASIDE]
2 | 19 | COc1cc(/C=C/C(=O)O[C@H]2[C@H](O[C@@H]3O[C@@H](C)[C@H](O)[C@@H](O)[C@H]3O)[C@@H](O)[C@H](OCCc3ccc(O)c(O)c3)O[C@@H]2CO)ccc1O [LEUCOSCEPTOSIDE A]
3 | 14.8 | O=C(/C=C/c1ccc(O)c(O)c1)OC[C@H]1O[C@@H](OCCc2ccc(O)c(O)c2)[C@H](O)[C@@H](O[C@@H]2O[C@H](CO)[C@@H](O)[C@H](O)[C@H]2O)[C@@H]1O [PLANTAINOSIDE D]
4 | 24.4 | C[C@@H]1O[C@@H](OC[C@H]2O[C@@H](OCCc3ccc(O)c(O)c3)[C@H](O)[C@@H](O[C@@H]3O[C@@H](C)[C@H](O)[C@@H](O)[C@H]3O)[C@@H]2OC(=O)/C=C/c2ccc(O)c(O)c2)[C@H](O)[C@H](O)[C@H]1O [POLIUMOSIDE]

Further lines, the molecule ahead of its results:

Row | SMILES | IC50 [µM]
5 | COc1ccc(CCO[C@@H]2O[C@H](CO[C@@H]3O[C@@H](C)[C@H](O)[C@@H](O)[C@H]3O)[C@@H](OC(=O)/C=C/c3ccc(O)c(OC)c3)[C@H](O[C@@H]3O[C@@H](C)[C@H](O)[C@@H](O)[C@H]3O)[C@H]2O)cc1O | 125
6 | C[C@@H]1O[C@@H](O[C@@H]2[C@@H](O)[C@H](OCCc3ccc(O)c(O)c3)O[C@H](CO)[C@H]2OC(=O)/C=C/c2ccc(O)c(O)c2)[C@H](O)[C@H](O)[C@H]1O [ACETOSIDE] | 9.3
7 | O=C(/C=C/c1ccc(O)c(O)c1)O[C@H]1[C@H](O)[C@@H](O)[C@H](OCCc2ccc(O)c(O)c2)O[C@@H]1CO [CALCEOLARIOSIDE A] | 0.6
8 | O=C(/C=C/c1ccc(O)c(O)c1)OC[C@H]1O[C@@H](OCCc2ccc(O)c(O)c2)[C@H](O)[C@@H](O)[C@@H]1O [CALCEOLARIOSIDE B] | 4.6
